Assays:
Candida albicans = assay: Antimicrobial activity by agar dilution, Candida albicans; assay type: cell-based; conditions: after 10, 20, 40 and 60 minutes at all dilutions 1:100, 1:200, 1:400, and 1:800
Procedure: (§1) The antibacterial properties of the synthesized compound (ethyl 2-[9-(6-chloro-2-hydroxyquinolin-3-yl)-3,6-diphenyl-1,8-dioxo-3,4,9,10-tetrahydroacridine-10-yl]-acetate) were studied by the method of agar dilution. Test solutions of each compound was prepared in concentration of 1% using dimethylformamide as a solvent. Then they were diluted in physiological solution to obtain the final experimental dilutions of 1:100, 1:200, 1:400, and 1:800. The effect of these substances were compared with furacillin in a controllable study. The testing microbes used were gram positive bacteria Staphylococcus aureus, gram negative bacteria Pseudomonas aeruginosa, Escherichia coli, and Candida albicans fungus. The experiments used for this survey were meat-pentonlu agar (EPA) for cultivation of bacteria and Saburo environment for fungi. Each experiment used 1 mL of test solution on each plate for […]. Two drops of emulsified with microbes feel were added. All experimental samples were taken from the agar after 10, 20, 40, 60 minutes in the environment on the basis of Patrk planted. Bacteria were cultivated at a temperature of 37° C. for 1 day and the mushroom was kept in a thermostat for […] at a temperature of 28° C. Then results were checked. Those of control and the antimicrobial activity for the synthesized compounds are listed in Table 1 below, with furacillin serving as a reference.

Pseudomonas aeruginosa = assay: Antimicrobial activity by agar dilution, Ps. aeruginosa; assay type: cell-based; conditions: after 10, 20, 40 and 60 minutes at all dilutions 1:100, 1:200, 1:400, and 1:800
Procedure: as §1

Staphylococcus aureus = assay: Antimicrobial activity by agar dilution, St. Aereus; assay type: cell-based; conditions: after 10, 20, 40 and 60 minutes at all dilutions 1:100, 1:200, 1:400, and 1:800
Procedure: as §1

Escherichia coli = assay: Antimicrobial activity by agar dilution, E. Coli; assay type: cell-based; conditions: after 10, 20, 40 and 60 minutes at all dilutions 1:100, 1:200, 1:400, and 1:800
Procedure: as §1

melting point: 222 °C
Compound: CCOC(=O)CN1C2=C(C(=O)CC(c3ccccc3)C2)C(c2cc3cc(Cl)ccc3nc2O)C2=C1CC(c1ccccc1)CC2=O (centres unmarked) [ethyl 2-[9-(6-chloro-2-hydroxyquinolin-3-yl)-3,6-diphenyl-1,8-dioxo-3,4,9,10-tetrahydroacridine-10-yl]-acetate]
inhibition activity compared with Furacilin (Candida albicans): higher inhibition activity
inhibition activity compared with Furacilin (Pseudomonas aeruginosa): higher inhibition activity
inhibition activity compared with Furacilin (Staphylococcus aureus): higher inhibition activity
inhibition activity compared with Furacilin (Escherichia coli): higher inhibition activity

Source: US11987571B1, “Ethyl 2-[9-(6-chloro-2-hydroxyquinolin-3-yl)-3,6-diphenyl-1,8-dioxo-3,4,9,10-tetrahydroacridine-10-yl]-acetate as an antimicrobial compound” (KING FAISAL UNIVERSITY, priority 2023, dated 2024)
